Entries after “also recorded” stand apart in the source; their conditions may differ.
Tested on: RAJI cells
Assay: GLuc cytotoxicity assay, RAJI-GLuc cells
Type: cell-based, human
Description: (D) Assay for Cytotoxic Activity in vitro and in vivo: The uninfected T cells or those expressing a control vector or SIR are cocultured with the target cell lines expressing a non-secretory form of a luciferase (such as GLuc, NLuc, Turboluc 16 etc.) for 4-96 hours and induction of cell lysis examined by measuring the luciferase activity as described in PCT/US17/52344. Alternate methods for measurement of cytotoxic activity (e.g., ^51Cr release assay or LDH release assay) can be used as well. The activity of T cells expressing a SIR can be also assayed in vivo using appropriate xenograft models in immunodeficient mice.
Cell death assay. To measure cell death, a novel assay based on ectopic cytosolic expression of Gluc or NLuc was utilized as described in PCT/US17/52344 “A Non-Radioactive Cytotoxicity Assay”. The method involves expression of a reporter in a target cells in a manner so that it is preferentially retained within the healthy cells but is either released from dead and dying cells or whose activity can be preferentially measured in dead and dying cells. The preferred reporter for this assay are 1) non-secreted forms of luciferases from the copepods, such as Gaussia princeps, Pleuromamma abdominalis, Metridia pacifica, Metridia curticauda, Metridia asymmetrica, Metridia okhotensis, Metridia longa, Lucicutia ovaliformis, Heterorhabdus tanneri, and Pleuromamma scutullata 2) engineered luciferase reporters from deep sea shrimp, such as NanoLuc. The sequence of several such reporter vectors is provided in SEQ ID NO: 881 to SEQ ID NO: 887. The above vectors were used to generate retrovirus and lentiviruses which in turn were used to generate polyclonal population of several target cell lines stably expressing GLuc, NLuc, TurboLuc or MLuc7 following selection with appropriate antibiotics. Unless indicated otherwise, the target cells stably expressing the different luciferases (GLuc, Nluc, MLuc7 or TurboLuc16) were plated in triplicate in a 384 well plate in the media used for growing the target cells. Target cells which grow in suspension were generally plated at a concentration of 2-3×10^4 per well, while target cells which grow as adherent monolayers were plated at a concentration of 1-2×10^4 per well. Unless indicated otherwise, the target cells were cocultured with the genetically modified T cells (i.e. those expressing SIR or CAR) at an Effector:Target (E:T) ratio varying from 1:1 to 10:1 for 4 hours to 96 hours. In the case target cells grow as adherent cells (e.g., HeLa cells), they were allowed to attach to the bottom of the wells overnight before the T cells were added. T cells mediated induction of lysis of target cells was assayed by increase of luciferase activity as measured by BioTek synergy plate reader by directly injecting 0.5×CTZ assay buffer containing native coeloentrazine (Nanaolight).
CTZ assay. A 100× stock solution of native coelenterazine (CTZ; Nanolight, cat #303) was made by dissolving 1 mg of lyophilized CT powder in 1.1 ml of 100% Methanol supplemented with 30 μl of 6N HCl to avoid oxidation of CTZ with time. To make CTZ assay buffer, the 100× stock solution of CTZ was diluted to 0.5× concentration in PBS. Unless indicated otherwise, a total volume of 15 μl of the CTZ assay buffer (as prepared above) was added to each well of a 384-well white plate (Greiner, 384 well white plate cat #781075) containing cells expressing the non-secretory form of the luciferase in approximately 50-60 μl volume of medium and plates were read for luminescence in endpoint mode using BioTek synergyH4 plate reader. For 96 well plates, cells were plated in 200 μl of media and approximately 50 μl of 0.5×CTZ assay buffer was added. Unless indicated otherwise, the 0.5×CTZ assay buffer was used for assaying the activity of GLuc, TurboLuc16, and MLuc7. The CTZ assay buffer (diluted to 0.125× concentration) was also used for measurement of NLuc activity in some experiments (see below).

Substance	lysis of target cells by increase of GLuc activity (in words) (E:T 1:1, 96 hours)	lysis of target cells by increase of GLuc activity (in words) (E:T 10:1, 4 hours)	mean Gluc values (E:T 10:1, 4 hours)
CD8SP-CD19Bu12-vL-V5-[TCRb-S57C-opt1]-F-P2A-SP-CD19Bu12-vH-Myc-[TCRa-T48C-opt1]-F-F2A-PAC [SEQ ID NO:1021]	increase in GLuc activity	increase in GLuc activity	2547
CD8SP-FMC63-vL-V5-[TCRb-S57C-opt1]-F-P2A-SP-FMC63-vH-Myc-[TCRa-T48C-opt1]-F-F2A-PAC [SEQ ID NO:900]	increase in GLuc activity	increase in GLuc activity; also recorded: induced effective target cell lysis; also recorded: Modest cytotoxicity	3042

From patent publication US12269859B2, “Synthetic immune receptors and methods of use thereof” (Angeles Therapeutics, Inc., priority 2016, dated 2025)
